Data taken from patent US7074789B2, “Kinase inhibitors” (Amgen Inc., priority 1999, dated 2006).

What was measured:
Format in all cases: biochemical
[1] = target: T1, Zap-70 (Homo sapiens, UniProt P43403); experiment: Kinase inhibition assay (33P transfer), Zap-70; details: read-out: Zap-1
T1 construct: Kinases are expressed as either kinase domains or full length constructs; made in house
T1 sequence (P43403 1-619): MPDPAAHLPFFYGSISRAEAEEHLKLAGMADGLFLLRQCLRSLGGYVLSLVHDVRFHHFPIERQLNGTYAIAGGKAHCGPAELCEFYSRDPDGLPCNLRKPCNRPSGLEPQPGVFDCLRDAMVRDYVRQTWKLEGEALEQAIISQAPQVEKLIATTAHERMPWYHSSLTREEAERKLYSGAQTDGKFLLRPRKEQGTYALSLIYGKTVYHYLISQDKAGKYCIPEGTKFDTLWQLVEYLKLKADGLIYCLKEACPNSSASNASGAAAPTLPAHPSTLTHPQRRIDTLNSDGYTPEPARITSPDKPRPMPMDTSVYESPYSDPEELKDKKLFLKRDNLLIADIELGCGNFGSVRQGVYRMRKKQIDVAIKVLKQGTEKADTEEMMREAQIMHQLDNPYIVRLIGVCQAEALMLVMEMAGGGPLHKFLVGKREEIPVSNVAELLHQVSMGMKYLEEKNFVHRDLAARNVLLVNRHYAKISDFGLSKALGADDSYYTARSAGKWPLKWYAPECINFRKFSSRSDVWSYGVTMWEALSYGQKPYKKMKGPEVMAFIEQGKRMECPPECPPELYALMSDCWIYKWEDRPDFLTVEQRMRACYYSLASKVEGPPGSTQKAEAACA
In short: (§1)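 GST/His-tagged kinase (domain or full length; E. coli or baculovirus) + [33P]ATP on plates coated with poly(Glu,Tyr) 4:1 or poly(Arg,Ser) 3:1; incubate, wash 0.5% H3PO4, add scintillant, count.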

[2] = target: T2, Kdr (Homo sapiens, UniProt P35968); experiment: Kinase inhibition assay (33P transfer), Kdr; details: read-out: KDR-1
T2 construct: Kinases are expressed as either kinase domains or full length constructs; made in house
In short: as §1

[3] = target: T3, c-Met (Homo sapiens, UniProt P08581); experiment: Kinase inhibition assay (33P transfer), c-Met; details: Table 2, kinase inhibition class; read-out: Met-1
T3 construct: Kinases are expressed as either kinase domains or full length constructs; made in house
In short: (§2)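 IC50: inhibitor concentration lowering 33P incorporation into immobilised substrate by 50%. Label transferred from ATP to poly(Glu,Tyr) 4:1 or poly(Arg,Ser) 3:1 is measured after a 0.5% phosphoric acid wash by liquid scintillation.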

[4] = target: T4, Src (Homo sapiens, UniProt P12931); experiment: Kinase inhibition assay (33P transfer), Src; details: Table 6, Src-1 kinase inhibition class
T4 construct: Kinases are expressed as either kinase domains or full length constructs; made in house
In short: as §2

[5] = target: T5, ErbB2 (Homo sapiens, UniProt P04626); experiment: Kinase inhibition assay (33P transfer), ErbB2; details: read-out: ErbB2-2
T5 construct: Kinases are expressed as either kinase domains or full length constructs; made in house
In short: as §2

[6] = target: T6, Ret-1 (Homo sapiens, UniProt P07949); experiment: Kinase inhibition assay (33P transfer), Ret; details: Table 6, Ret-1 kinase inhibition class
T6 construct: Kinases are expressed as either kinase domains or full length constructs; made in house

[7] = target: T7, Tek (Homo sapiens, UniProt Q02763); experiment: Kinase inhibition assay (33P transfer), Tek; details: read-out: Tek-1
T7 construct: Kinases are expressed as either kinase domains or full length constructs; made in house
In short: as §2

[8] = target: T8, AKT (Homo sapiens, UniProt Q9Y243); experiment: Kinase inhibition assay (33P transfer), AKT; details: Table 2, kinase inhibition class; read-out: AKT3-1
T8 construct: Kinases are expressed as either kinase domains or full length constructs; made in house
In short: as §1

[9] = target: T9, PDGFRB (Homo sapiens, UniProt P09619); experiment: Kinase inhibition assay (33P transfer), PDGFRB; details: read-out: PDGFRB-1
T9 construct: Kinases are expressed as either kinase domains or full length constructs; made in house

[10] = target: T10, IGFR-1 (Homo sapiens, UniProt P08069); experiment: Kinase inhibition assay, IGFR-1 (Table 2); details: Table 2, kinase inhibition class
T10 construct: Kinases are expressed as either kinase domains or full length constructs; made in house

[11] = target: T11, Itk (Homo sapiens, UniProt Q08881); experiment: Kinase inhibition assay (33P transfer), Itk; details: read-out: Itk-1
T11 construct: Kinases are expressed as either kinase domains or full length constructs; made in house
T11 sequence (Q08881 1-620): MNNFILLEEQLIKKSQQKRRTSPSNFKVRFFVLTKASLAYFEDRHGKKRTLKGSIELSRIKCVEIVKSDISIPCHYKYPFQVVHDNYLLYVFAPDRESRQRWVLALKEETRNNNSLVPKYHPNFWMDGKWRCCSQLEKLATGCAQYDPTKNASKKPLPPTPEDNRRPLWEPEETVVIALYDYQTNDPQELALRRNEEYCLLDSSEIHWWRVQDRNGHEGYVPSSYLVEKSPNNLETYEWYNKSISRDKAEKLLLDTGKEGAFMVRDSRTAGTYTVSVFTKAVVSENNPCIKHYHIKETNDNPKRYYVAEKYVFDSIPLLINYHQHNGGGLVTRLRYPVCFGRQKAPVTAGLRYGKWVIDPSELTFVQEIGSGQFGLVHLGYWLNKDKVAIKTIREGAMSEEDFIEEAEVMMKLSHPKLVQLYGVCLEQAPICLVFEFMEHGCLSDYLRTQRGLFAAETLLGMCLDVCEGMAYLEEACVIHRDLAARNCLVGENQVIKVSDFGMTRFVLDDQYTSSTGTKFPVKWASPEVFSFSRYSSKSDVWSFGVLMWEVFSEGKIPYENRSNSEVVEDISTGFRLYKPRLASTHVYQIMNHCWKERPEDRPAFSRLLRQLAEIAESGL
In short: as §2

[12] = target: T12, Fyn (Homo sapiens, UniProt P06241); experiment: Kinase inhibition assay (33P transfer), Fyn; details: read-out: Fyn-1
T12 construct: Kinases are expressed as either kinase domains or full length constructs; made in house
In short: as §2

[13] = target: T13, EGFR (Homo sapiens, UniProt P00533); experiment: Kinase inhibition assay (33P transfer), EGFR; details: Table 2, kinase inhibition class; read-out: EGFR-1
T13 construct: Kinases are expressed as either kinase domains or full length constructs; made in house
In short: as §2

[14] = target: T14, Lck (Homo sapiens, UniProt P06239); experiment: Kinase inhibition assay (33P transfer), Lck; details: read-out: Lck-1
T14 construct: Kinases are expressed as either kinase domains or full length constructs; made in house
In short: as §1

[15] = target: T15, Flt-1 (Homo sapiens, UniProt P17948); experiment: Kinase inhibition assay (33P transfer), Flt-1
T15 construct: Kinases are expressed as either kinase domains or full length constructs; made in house
In short: as §2

[16] = target: T16, Hck-1 (Homo sapiens, UniProt P08631); experiment: Kinase inhibition assay (33P transfer), Hck; details: Table 6, Hck-1 kinase inhibition class
T16 construct: Kinases are expressed as either kinase domains or full length constructs; made in house

[17] = target: T17, Lyn (Homo sapiens, UniProt P07948); experiment: Kinase inhibition assay (33P transfer), Lyn; details: Table 6, Lyn-1 kinase inhibition class
T17 construct: Kinases are expressed as either kinase domains or full length constructs; made in house
In short: as §2

[18] = target: T18, FGFR1 (Homo sapiens, UniProt P11362); experiment: Kinase inhibition assay (33P transfer), FGFR1; details: read-out: FGFR1-1
T18 construct: Kinases are expressed as either kinase domains or full length constructs; made in house

[19] = target: T19, ErbB4 (Homo sapiens, UniProt Q15303); experiment: Kinase inhibition assay (33P transfer), ErbB4; details: read-out: ErbB4-1
T19 construct: Kinases are expressed as either kinase domains or full length constructs; made in house
T19 sequence (Q15303 26-1308, species assumed): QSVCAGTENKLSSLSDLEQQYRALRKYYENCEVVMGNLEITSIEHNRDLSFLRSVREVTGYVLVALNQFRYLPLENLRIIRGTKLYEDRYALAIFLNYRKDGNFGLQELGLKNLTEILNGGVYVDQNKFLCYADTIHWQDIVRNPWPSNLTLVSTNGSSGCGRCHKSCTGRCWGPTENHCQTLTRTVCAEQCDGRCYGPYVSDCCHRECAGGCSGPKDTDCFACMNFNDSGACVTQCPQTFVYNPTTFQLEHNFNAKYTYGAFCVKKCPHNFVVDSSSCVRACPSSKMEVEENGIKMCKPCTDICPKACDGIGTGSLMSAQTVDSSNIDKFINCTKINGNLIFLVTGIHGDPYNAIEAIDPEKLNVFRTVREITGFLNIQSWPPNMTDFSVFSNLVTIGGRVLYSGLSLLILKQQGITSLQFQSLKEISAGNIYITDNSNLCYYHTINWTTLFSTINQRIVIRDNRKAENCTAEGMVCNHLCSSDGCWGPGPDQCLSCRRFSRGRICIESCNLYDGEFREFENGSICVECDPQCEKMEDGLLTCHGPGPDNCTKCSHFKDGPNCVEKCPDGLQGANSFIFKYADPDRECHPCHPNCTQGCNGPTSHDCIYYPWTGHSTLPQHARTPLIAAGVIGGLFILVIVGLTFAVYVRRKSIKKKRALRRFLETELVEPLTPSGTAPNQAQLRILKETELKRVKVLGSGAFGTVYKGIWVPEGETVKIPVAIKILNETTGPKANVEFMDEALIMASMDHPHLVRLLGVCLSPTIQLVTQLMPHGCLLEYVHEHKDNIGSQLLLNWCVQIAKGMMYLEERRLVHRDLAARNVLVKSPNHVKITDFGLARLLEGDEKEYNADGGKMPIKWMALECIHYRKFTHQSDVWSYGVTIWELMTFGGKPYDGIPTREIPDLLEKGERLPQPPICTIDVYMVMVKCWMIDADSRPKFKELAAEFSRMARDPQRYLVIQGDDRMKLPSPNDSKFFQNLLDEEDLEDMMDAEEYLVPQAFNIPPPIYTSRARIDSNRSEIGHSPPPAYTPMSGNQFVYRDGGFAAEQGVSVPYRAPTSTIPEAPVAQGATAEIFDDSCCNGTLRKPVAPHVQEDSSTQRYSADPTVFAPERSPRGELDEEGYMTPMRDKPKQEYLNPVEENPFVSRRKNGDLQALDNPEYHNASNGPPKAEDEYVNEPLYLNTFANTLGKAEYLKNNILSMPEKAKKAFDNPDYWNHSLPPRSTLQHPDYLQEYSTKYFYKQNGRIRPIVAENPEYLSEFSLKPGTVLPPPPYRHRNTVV

T4 sequence (P12931 whole entry, species assumed, the tested form may be a part): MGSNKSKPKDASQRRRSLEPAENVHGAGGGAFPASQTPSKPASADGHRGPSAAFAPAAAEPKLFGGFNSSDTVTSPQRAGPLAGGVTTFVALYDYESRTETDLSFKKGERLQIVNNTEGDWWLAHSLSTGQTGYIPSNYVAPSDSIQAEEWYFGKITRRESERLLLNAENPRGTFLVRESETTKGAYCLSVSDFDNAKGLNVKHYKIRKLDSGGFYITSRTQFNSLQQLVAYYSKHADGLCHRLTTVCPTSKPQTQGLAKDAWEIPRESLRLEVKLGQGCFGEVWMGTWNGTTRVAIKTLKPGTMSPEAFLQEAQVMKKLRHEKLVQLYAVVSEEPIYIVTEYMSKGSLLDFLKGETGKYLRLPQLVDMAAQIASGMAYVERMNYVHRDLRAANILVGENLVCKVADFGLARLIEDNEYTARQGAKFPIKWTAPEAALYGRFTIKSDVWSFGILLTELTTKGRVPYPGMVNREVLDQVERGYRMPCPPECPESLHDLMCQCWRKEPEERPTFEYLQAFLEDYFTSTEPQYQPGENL
T13 sequence (P00533 25-1210, species assumed): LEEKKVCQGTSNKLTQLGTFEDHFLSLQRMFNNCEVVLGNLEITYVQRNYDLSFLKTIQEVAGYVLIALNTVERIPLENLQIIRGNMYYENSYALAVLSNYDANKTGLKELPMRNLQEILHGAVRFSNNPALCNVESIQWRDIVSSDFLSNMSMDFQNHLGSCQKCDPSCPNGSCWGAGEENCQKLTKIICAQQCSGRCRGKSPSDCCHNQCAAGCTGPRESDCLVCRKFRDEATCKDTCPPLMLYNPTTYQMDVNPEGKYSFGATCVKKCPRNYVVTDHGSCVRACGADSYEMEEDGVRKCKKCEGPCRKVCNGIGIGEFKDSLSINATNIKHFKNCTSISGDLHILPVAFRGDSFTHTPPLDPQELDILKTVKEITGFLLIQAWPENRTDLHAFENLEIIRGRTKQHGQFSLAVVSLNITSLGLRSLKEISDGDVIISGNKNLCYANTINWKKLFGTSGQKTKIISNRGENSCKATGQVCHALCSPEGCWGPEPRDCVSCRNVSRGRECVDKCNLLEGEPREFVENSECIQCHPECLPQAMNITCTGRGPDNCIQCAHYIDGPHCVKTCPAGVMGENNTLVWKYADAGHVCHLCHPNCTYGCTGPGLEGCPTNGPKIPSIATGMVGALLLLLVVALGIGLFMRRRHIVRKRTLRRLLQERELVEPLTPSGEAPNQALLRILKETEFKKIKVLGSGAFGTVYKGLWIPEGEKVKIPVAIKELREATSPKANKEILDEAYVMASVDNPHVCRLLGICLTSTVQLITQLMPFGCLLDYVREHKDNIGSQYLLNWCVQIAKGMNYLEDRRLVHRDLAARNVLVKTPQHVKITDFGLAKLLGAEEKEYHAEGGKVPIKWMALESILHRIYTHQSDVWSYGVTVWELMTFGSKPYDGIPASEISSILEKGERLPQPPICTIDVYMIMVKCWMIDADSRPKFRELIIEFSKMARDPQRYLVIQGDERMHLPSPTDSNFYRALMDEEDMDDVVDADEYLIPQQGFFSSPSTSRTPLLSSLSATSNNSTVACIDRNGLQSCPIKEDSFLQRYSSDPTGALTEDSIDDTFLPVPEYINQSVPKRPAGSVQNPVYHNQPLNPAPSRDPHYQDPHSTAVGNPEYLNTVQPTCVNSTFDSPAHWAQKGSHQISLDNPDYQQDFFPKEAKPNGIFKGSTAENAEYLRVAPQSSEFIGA
T12 sequence (P06241 whole entry, species assumed, the tested form may be a part): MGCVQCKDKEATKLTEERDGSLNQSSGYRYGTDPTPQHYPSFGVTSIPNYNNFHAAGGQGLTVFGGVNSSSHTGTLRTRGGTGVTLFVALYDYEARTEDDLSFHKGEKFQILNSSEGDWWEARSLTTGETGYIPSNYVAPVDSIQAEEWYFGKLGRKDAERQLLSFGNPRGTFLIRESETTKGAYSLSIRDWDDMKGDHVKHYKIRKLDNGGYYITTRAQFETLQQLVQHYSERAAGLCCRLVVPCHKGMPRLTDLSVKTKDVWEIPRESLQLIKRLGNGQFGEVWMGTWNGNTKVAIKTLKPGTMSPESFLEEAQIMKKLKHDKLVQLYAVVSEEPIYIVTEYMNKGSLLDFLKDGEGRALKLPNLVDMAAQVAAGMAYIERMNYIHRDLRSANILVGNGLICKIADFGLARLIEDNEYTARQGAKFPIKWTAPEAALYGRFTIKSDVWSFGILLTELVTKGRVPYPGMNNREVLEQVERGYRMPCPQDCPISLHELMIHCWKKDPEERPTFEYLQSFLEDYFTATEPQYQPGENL
T14 sequence (P06239 whole entry, species assumed, the tested form may be a part): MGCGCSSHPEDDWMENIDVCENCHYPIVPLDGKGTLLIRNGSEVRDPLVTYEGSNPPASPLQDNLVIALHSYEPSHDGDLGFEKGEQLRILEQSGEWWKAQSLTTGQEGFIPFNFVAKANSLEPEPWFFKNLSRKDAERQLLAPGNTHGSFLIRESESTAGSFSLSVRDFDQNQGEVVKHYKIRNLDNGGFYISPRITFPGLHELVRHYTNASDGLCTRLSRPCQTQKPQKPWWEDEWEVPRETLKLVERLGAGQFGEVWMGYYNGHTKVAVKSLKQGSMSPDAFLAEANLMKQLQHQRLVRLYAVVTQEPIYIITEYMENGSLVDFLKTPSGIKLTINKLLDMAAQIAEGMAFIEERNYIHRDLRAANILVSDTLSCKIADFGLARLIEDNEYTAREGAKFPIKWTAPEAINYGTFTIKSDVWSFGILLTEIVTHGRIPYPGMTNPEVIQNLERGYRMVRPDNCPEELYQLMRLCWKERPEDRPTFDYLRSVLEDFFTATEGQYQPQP
T17 sequence (P07948 whole entry, species assumed, the tested form may be a part): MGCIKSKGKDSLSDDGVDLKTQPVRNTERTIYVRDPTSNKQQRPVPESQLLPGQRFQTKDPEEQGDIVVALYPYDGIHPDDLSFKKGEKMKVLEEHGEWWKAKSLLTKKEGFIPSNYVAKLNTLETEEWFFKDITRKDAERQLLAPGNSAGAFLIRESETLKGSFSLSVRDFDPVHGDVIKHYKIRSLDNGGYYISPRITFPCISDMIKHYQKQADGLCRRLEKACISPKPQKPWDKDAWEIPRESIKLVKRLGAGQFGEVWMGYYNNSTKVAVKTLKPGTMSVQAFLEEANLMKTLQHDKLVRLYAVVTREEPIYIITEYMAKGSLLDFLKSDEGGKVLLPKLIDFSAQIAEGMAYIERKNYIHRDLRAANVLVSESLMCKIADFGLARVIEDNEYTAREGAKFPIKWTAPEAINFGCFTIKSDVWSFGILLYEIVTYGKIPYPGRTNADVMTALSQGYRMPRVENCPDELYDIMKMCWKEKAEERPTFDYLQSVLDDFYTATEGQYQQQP
T8 sequence (Q9Y243 whole entry, the tested form may be a part): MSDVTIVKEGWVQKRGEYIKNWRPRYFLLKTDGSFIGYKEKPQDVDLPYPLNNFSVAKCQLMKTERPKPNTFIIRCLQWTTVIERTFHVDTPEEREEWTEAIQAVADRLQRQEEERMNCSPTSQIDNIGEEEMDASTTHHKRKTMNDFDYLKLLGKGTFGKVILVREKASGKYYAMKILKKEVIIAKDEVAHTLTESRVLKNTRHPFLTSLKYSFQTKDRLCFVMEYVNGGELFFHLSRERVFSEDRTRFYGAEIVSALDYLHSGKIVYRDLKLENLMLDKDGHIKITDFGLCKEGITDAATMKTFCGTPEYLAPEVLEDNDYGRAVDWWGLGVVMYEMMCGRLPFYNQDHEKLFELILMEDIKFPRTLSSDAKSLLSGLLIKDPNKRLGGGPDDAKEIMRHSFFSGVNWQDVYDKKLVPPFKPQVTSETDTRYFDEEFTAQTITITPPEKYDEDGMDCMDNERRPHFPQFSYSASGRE

Structure (SMILES) | IC50 [1] | IC50 [2] | IC50 [3] | IC50 [4] | IC50 [5] | IC50 [6] | IC50 [7] | IC50 [8] | IC50 [9] | IC50 [10] | IC50 [11] | IC50 [12] | IC50 [13] | IC50 [14] | IC50 [15] | IC50 [16] | IC50 [17] | IC50 [18] | IC50 [19]
COc1cc(Nc2ncnc(-n3c(NCc4ccccc4F)nc4ccccc43)n2)cc(OC)c1OC [Compound 512] | > 8.97 µM | < 0.798 µM | > 8.97 µM | > 8.97 µM | 4.79 to 6.98 µM | < 0.798 µM | > 8.97 µM | > 8.97 µM | < 0.798 µM | > 8.97 µM | > 8.97 µM | > 8.97 µM | > 8.97 µM | 0.798 to 4.79 µM | 0.798 to 4.79 µM | > 8.97 µM | < 0.798 µM | < 0.798 µM | 0.798 to 4.79 µM
COc1cc(Nc2ncnc(-n3c(NCc4cccc(Cl)c4)nc4ccccc43)n2)cc(OC)c1OC [Compound 949] | > 8.69 µM | < 0.772 µM | 6.76 to 8.69 µM | > 8.69 µM | > 8.69 µM | < 0.772 µM | > 8.69 µM | > 8.69 µM | < 0.772 µM | 6.76 to 8.69 µM | > 8.69 µM | > 8.69 µM | > 8.69 µM | < 0.772 µM | < 0.772 µM | > 8.69 µM | 0.772 to 4.63 µM | < 0.772 µM | 0.772 to 4.63 µM
Nc1nc2ccccc2n1-c1ncnc(Nc2ccc(N3CCOCC3)cc2)n1 [Compound 479] | > 11.6 µM | 1.03 to 6.18 µM | 6.18 to 9.01 µM | > 11.6 µM | 6.18 to 9.01 µM | 1.03 to 6.18 µM | > 11.6 µM | > 11.6 µM | 6.18 to 9.01 µM | < 1.03 µM | 6.18 to 9.01 µM | > 11.6 µM | 9.01 to 11.6 µM | 1.03 to 6.18 µM | 1.03 to 6.18 µM | > 11.6 µM | 9.01 to 11.6 µM | 1.03 to 6.18 µM | 9.01 to 11.6 µM
COc1cc(Nc2ncnc(-n3c(NCCc4ccccn4)nc4ccccc43)n2)cc(OC)c1OC [Compound 510] | > 9.03 µM | < 0.802 µM | > 9.03 µM | > 9.03 µM | > 9.03 µM | 0.802 to 4.81 µM | > 9.03 µM | > 9.03 µM | 4.81 to 7.02 µM | > 9.03 µM | 0.802 to 4.81 µM | > 9.03 µM | > 9.03 µM | 0.802 to 4.81 µM | 0.802 to 4.81 µM | > 9.03 µM | > 9.03 µM | 0.802 to 4.81 µM | > 9.03 µM
COc1cc(Nc2ncnc(-n3c(NCc4cccc(Br)c4)nc4ccccc43)n2)cc(OC)c1OC [Compound 946] | > 8 µM | 0.711 to 4.27 µM | 6.22 to 8 µM | > 8 µM | > 8 µM | 0.711 to 4.27 µM | > 8 µM | > 8 µM | < 0.711 µM | 4.27 to 6.22 µM | > 8 µM | > 8 µM | 6.22 to 8 µM | 0.711 to 4.27 µM | 0.711 to 4.27 µM | > 8 µM | < 0.711 µM | < 0.711 µM | > 8 µM
